Reference: patent US20220409686A1, “MEDICAL COMPOSITIONS AND THEIR USES” (BIOMILLENIA SAS, priority 2019, published 2022)
Entries after “also recorded” stand apart in the source; their conditions may differ.

Key:
Assay type in all cases: cell-based
[1] = system: Malassezia restricta; assay: modified disc diffusion assay with living culture (Example 2); conditions: M. restricta lawn; discs soaked with 15 ul exponentially growing Acetobacter culture or ketoconazole 1 mg/mL in DMSO; 5 days incubation
Description: (§1) FIG. 1|Inhibition assays of M. restricta and M. globose by growth of Acetobacter fabarum. Discs were soaked with ketoconazole (1 mg/ml in DMSO) or exponentially growing Acetobacter fabarum culture and placed on agar plates containing a soft layer inoculated with a single culture of the different Malassezia species to be tested. In the upper panel, inhibition of Malassezia globosa is shown; in the bottom panel, Malassezia restricta is shown.
(§2) In order to identify strains whose growth inhibits Malassezia, inhibition assays were performed using a modified disc diffusion method. This method is similar to the classical disc diffusion method that consists in depositing discs imbibed with potential inhibitory substances on Petri plates containing a strain of interest, except that the discs were imbibed with a living culture of an Acetobacter strain. After optimal growth of the strain of interest, growth inhibition can be observed around discs on which the growth of inhibitory bacteria has occurred. Ketoconazole (at 1 mg/mL in DMSO) was used as a positive control for Malassezia growth inhibition. The effect of growth of Acetobacter was tested on Malassezia restricta and Malassezia globosa. All Malassezia strains were streaked from −80° C. stock on Modified Leeming and Notman (MLN) agar plates and incubated 10 days at 30° C. […]

[2] = system: Malassezia globosa; assay: as above; conditions: M. globosa lawn; discs soaked with 15 ul exponentially growing Acetobacter culture or ketoconazole 1 mg/mL in DMSO; 5 days incubation
Description: as §1, §2

[3] = system: Malassezia furfur; assay: disc diffusion inhibition assay (Example 1); conditions: M. furfur lawn in soft agar; 6 mm discs soaked with 15 ul supernatant or ketoconazole 1 mg/ml in DMSO; 5 days incubation
Description: (§3) FIG. 1|Inhibition assays of the fungicide ketoconazole as positive control for inhibition and Kazachstania unispora supernatant on M. sympodialis, M. furfur, M. restricta and M. globosa. Inhibition assays were performed using the disc diffusion method. Discs were soaked with ketoconazole (1 mg/ml) or K. unispora supernatant and placed on agar plates containing a soft layer inoculated with a single culture of the different Malassezia species to be tested.
(§4) In order to identify strains inhibiting Malassezia growth, inhibition assays were performed using the disc diffusion method. This method consists in disposing discs imbibed with potential inhibitory substances on Petri plates containing a strain of interest. After optimal growth of the strain of interest, growth inhibition can be observed around discs soaked with substances having an inhibitory effect. Potential inhibitory substances tested in this experiment are supernatants obtained after individually culturing a collection of fungal and bacterial strains. After an incubation of 10 days in their optimal broth, each culture was centrifuged and the supernatant was filtered and further stored at −20° C. Ketoconazole, a fungicide, was used as a positive control for Malassezia growth inhibition. It was diluted in dimethyl sulfoxide at 1 mg/ml. The collection of supernantants was tested on the following species from the genus Malassezia: Malassezia restricta, Malassezia globosa, Malassezia furfur and Malassezia sympodialis. All strains were streaked from −80° C. stock on Modified Leeming and Notman (MLN) agar plates and incubated 10 days at 30° C. A 5 ml liquid culture of each species was made in MLN broth and incubated at 30° C. for 2 days for M. furfur and M. sympodialis and 5 days for M. restricta and M. globosa. To allow a lawn growth of the different Malassezia strains tested, Petri plates were prepared as follows: a bottom layer of 50 ml Modified Sabouraud Dextrose (MSD) agar was poured in Petri plates. The soft agar, constituting the top layer, was a mix of 12.5 ml MSD agar, 10.5 ml MLN broth and 2 ml of liquid culture. Plates were allowed to dry for one hour, then, 6 mm-diameter Whatman™ discs were soaked with 15 ul of each thawed supernatants and ketoconazole and placed on the soft agar plate containing the solidified Malassezia monoculture layer. After an incubation of 5 days, inhibition area could be easily observed around discs. As expected, ketoconazole inhibited all 4 Malassezia species tested in this experiment. […] The strain from which the inhibitory supernatant has been produced was further sequenced using the Sanger technology. The internal transcribed spacer (ITS) of this strain was taxonomically assigned to the yeast Kazachstania unispora (BLASTn, 99% identity, 99% query cover, e-value 0.00).

[4] = system: Malassezia restricta; assay: disc diffusion inhibition assay (Example 1); conditions: M. restricta lawn in soft agar; 6 mm discs soaked with 15 ul supernatant or ketoconazole 1 mg/ml in DMSO; 5 days incubation
Description: as §3, §4

[5] = system: Malassezia sympodialis; assay: disc diffusion inhibition assay (Example 1); conditions: M. sympodialis lawn in soft agar; 6 mm discs soaked with 15 ul supernatant or ketoconazole 1 mg/ml in DMSO; 5 days incubation
Description: as §3, §4

[6] = system: Malassezia globosa; assay: disc diffusion inhibition assay (Example 1); conditions: M. globosa lawn in soft agar; 6 mm discs soaked with 15 ul supernatant or ketoconazole 1 mg/ml in DMSO; 5 days incubation
Description: as §3, §4

In the case of CC(=O)N1CCN(c2ccc(OCC3COC(Cn4ccnc4)(c4ccc(Cl)cc4Cl)O3)cc2)CC1 (stereo not drawn) [ketoconazole], the “growth inhibition (inhibition halo around disc)” value (“growth inhibition” for short) [1] is reported as “inhibits growth; also recorded: inhibited”, the “growth inhibition” value [2] is reported as “inhibits growth; also recorded: inhibited” and the “growth inhibition” value [3] is reported as “inhibits growth; also recorded: inhibited”. The “growth inhibition” value [4] was “inhibits growth; also recorded: inhibited”, the “growth inhibition” value [5] was “inhibits growth; also recorded: inhibited” and the “growth inhibition” value [6] was “inhibits growth; also recorded: inhibited”.
